Laboratory results: patent publication US10905125B2, “Biocidal compositions and method of treating water using thereof” (BWA WATER ADDITIVES UK LIMITED, priority 2014, dated 2021)

Legend:
[1] = test system: Enterobacter aerogenes; experiment: Log10 reduction of viable facultative anaerobe cells in saline phosphate buffer suspension (serial dilution into anaerobic acid producing media vials); type: cell-based; details: for Log10 Reduction Facultative Anaerobes: pH 7.5 phosphate buffer, room temperature; for efficacy against the facultative anaerobe Enterobacter aerogenes (in words): agent alone
Method: (§1) A suspension of Desulfovibrio vulgaris plus Enterobacter aerogenes bacteria containing from 1××10^6 to 1×10^8 cells/mL was prepared in sterile pH 7.5 phosphate buffer containing varying levels of sodium chloride to give the desired total dissolved solids (TDS) concentration. Aliquots of this suspension were dosed with the indicated concentrations of a phosphonium compound and a hypohalite compound with the concentrations being measured as ppm by weight of the stated compounds added to the dosed suspension. The mixtures were allowed to stand at room temperature. At the designated contact times, each mixture was sampled to determine the total number of viable cells of both Desulfovibrio vulgaris and Enterobacter aerogenes by serial 10-fold dilution into API RP 38 media vials and anaerobic acid producing media vials, respectively. The vials were incubated at 37° C. for 72 hours. Results were recorded as cells per millilitre.
(§2) Aqueous media inoculated with anaerobe and facultative anaerobe culture and having a TDS of 10,000 mg l^−1; 20,000 mg l^−1; or 30,000 mg l^−1 was treated with treatment agents comprising: (i) sodium hypochlorite; (ii) tri n-butyl n-tetradecyl phosphonium chloride (TTPC) or (iii) a combination of sodium hypochlorite and TTPC.
(§3) TTPC was used in the form of Bellacide 355, an aqueous composition of TTPC and water consisting of water and […] of TTPC available from BWA Water Additives.
(§4) Sodium hypochlorite was used in the form of Clorox, an aqueous composition of sodium hypochlorite and water consisting of water and 6% by weight sodium hypochlorite available from The Clorox Company.
(§5) The efficacy of the treatment agents was evaluated by measuring the Log 10 Reduction of the anaerobe Desulfovibrio vulgaris and the facultative anaerobe Enterobacter aerogenes [after contact times of 10 and 30 minutes as detailed in Table 1. For TTPC and sodium hypochlorite the stated ppm values relate to the amount added. The addition of 35 ppm sodium hypochlorite to the aqueous system provided 2 ppm of free sodium hypochlorite in the treated aqueous system.

[2] = test system: Desulfovibrio vulgaris; experiment: Log10 reduction of viable anaerobe cells in saline phosphate buffer suspension (serial dilution into API RP 38 media vials); type: cell-based; details: for Log10 Reduction Anaerobes: pH 7.5 phosphate buffer, room temperature; for efficacy against the anaerobe Desulfovibrio vulgaris (in words): agent alone
Method: as §1, §2, §3, §4, §5

[3] = TDS 30,000 mg l-1, contact time 30 minutes
[4] = TDS 20,000 mg l-1, contact time 30 minutes, listed as 3 (comparative)
[5] = TDS 20,000 mg l-1, contact time 30 minutes, listed as 4 (comparative)
[6] = TDS 30,000 mg l-1, contact times of 10 and 30 minutes
[7] = TDS 30,000 mg l-1, contact time 10 minutes

Structure (SMILES): [Na+].[O-]Cl [Example 6]
- Log10 Reduction Facultative Anaerobes [1, 3]: 3
- Log10 Reduction Anaerobes [2, 3]: 3

Structure (SMILES): CCCCCCCCCCCCCC[P+](CCCC)(CCCC)CCCC.[Cl-] [Example 3]
- Log10 Reduction Facultative Anaerobes [1, 4]: 0
- Log10 Reduction Anaerobes [2, 4]: 3

Structure (SMILES): CCCCCCCCCCCCCC[P+](CCCC)(CCCC)CCCC.[Cl-] [Example 1]
- Log10 Reduction Facultative Anaerobes ([1]; TDS 10,000 mg l-1, contact time 30 minutes, listed as 1 (comparative)): 6
- Log10 Reduction Anaerobes ([2]; TDS 10,000 mg l-1, contact time 30 minutes): 6

Structure (SMILES): CCCCCCCCCCCCCC[P+](CCCC)(CCCC)CCCC.[Cl-] [Example 2]
- Log10 Reduction Facultative Anaerobes ([1]; TDS 10,000 mg l-1, contact time 30 minutes, listed as 2 (comparative)): 8

Structure (SMILES): CCCCCCCCCCCCCC[P+](CCCC)(CCCC)CCCC.[Cl-] [Example 5]
- Log10 Reduction Facultative Anaerobes [1, 3]: 0
- Log10 Reduction Anaerobes [2, 3]: 0

Structure (SMILES): CCCCCCCCCCCCCC[P+](CCCC)(CCCC)CCCC.[Cl-] [Example 4]
- Log10 Reduction Facultative Anaerobes [1, 5]: 5
- Log10 Reduction Anaerobes [2, 5]: 6

Structure (SMILES): OCl [Sodium hypochlorite, sodium hypochlorite]
- efficacy against the facultative anaerobe Enterobacter aerogenes (in words) [1, 6]: some efficacy
- efficacy against the anaerobe Desulfovibrio vulgaris (in words) [2, 6]: some efficacy

Structure (SMILES): CCCCCCCCCCCCCC[P+](CCCC)(CCCC)CCCC.[Cl-] [TTPC, tri n-butyl n-tetradecyl phosphonium chloride]
- efficacy against the facultative anaerobe Enterobacter aerogenes (in words) [1, 3]: ineffective
- efficacy against the anaerobe Desulfovibrio vulgaris (in words) [2, 3]: ineffective

Structure (SMILES): [Na+].[O-]Cl [Example 11]
- Log10 Reduction Facultative Anaerobes [1, 7]: 2
- Log10 Reduction Anaerobes [2, 7]: 5
